The values that follow come from PubChem BioAssay AID328 (DTP/NCI, 2004).

This experiment relates to BDF1 mice, P388 leukemia ip, median survival T/C. The experiment is described as follows: NCI In Vivo Anticancer Drug Screen. Data for tumor model P388 Leukemia (intraperitoneal) in B6D2F1 (BDF1) mice. Conditions: endpoint: median survival time, higher = longer survival. Put shortly: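 Vehicle-dosed animals serve as the reference; survival of compound-dosed, tumour-implanted mice is divided by it.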

[1] abbreviates: dose: 25.0 mg/kg/injection, schedule: Q01DX009 (ip), vehicle: saline with Tween-80.
Setting [2] is: dose: 50.0 mg/kg/injection, schedule: Q01DX009 (ip), vehicle: saline with Tween-80.
[3] abbreviates: dose: 100.0 mg/kg/injection, schedule: Q01DX009 (ip), vehicle: saline with Tween-80.
The mark [4] stands for this setting: dose: 100.0 mg/kg/injection, schedule: Q04DX003 (ip), vehicle: saline with Tween-80.
Setting [5] is: dose: 25.0 mg/kg/injection, schedule: Q01DX009 (ip), vehicle: saline.
Where [6] appears, read: dose: 50.0 mg/kg/injection, schedule: Q01DX009 (ip), vehicle: saline.
Setting [7] is: dose: 50.0 mg/kg/injection, schedule: Q04DX003 (ip), vehicle: saline.
The mark [8] stands for this setting: dose: 200.0 mg/kg/injection, schedule: Q01DX009 (ip), vehicle: saline with Tween-80.
The mark [9] stands for this setting: dose: 200.0 mg/kg/injection, schedule: Q04DX003 (ip), vehicle: saline with Tween-80.
Where [10] appears, read: dose: 400.0 mg/kg/injection, schedule: Q04DX003 (ip), vehicle: saline with Tween-80.
Setting [11] is: dose: 12.5 mg/kg/injection, schedule: Q01DX009 (ip), vehicle: Klucel (hydroxypropylcellulose) (HPC).
Where [12] appears, read: dose: 25.0 mg/kg/injection, schedule: Q01DX009 (ip), vehicle: Klucel (hydroxypropylcellulose) (HPC).

“And” between values parts separate entries of the source, which are not always exact repeats. Equal entries are not always repeated. Inconclusive results and toxic doses are left out.

Turning to `C/C=C(/C)N(C(C)=O)N(C(C)=O)c1ccc([N+](=O)[O-])cc1[N+](=O)[O-]`, the T/C (dose: 100.0 mg/kg/injection, schedule: Q01DX001 (ip), vehicle: Klucel (hydroxypropylcellulose) (HPC)) is 109 % of control; the T/C (dose: 100.0 mg/kg/injection, schedule: Q04DX003 (ip), vehicle: Klucel (hydroxypropylcellulose) (HPC)) is 90 % of control; the T/C (dose: 200.0 mg/kg/injection, schedule: Q01DX001 (ip), vehicle: Klucel (hydroxypropylcellulose) (HPC)) is 100 % of control; the T/C (dose: 200.0 mg/kg/injection, schedule: Q04DX003 (ip), vehicle: Klucel (hydroxypropylcellulose) (HPC)) is 104 % of control; the T/C (dose: 400.0 mg/kg/injection, schedule: Q01DX001 (ip), vehicle: Klucel (hydroxypropylcellulose) (HPC)) is 109 % of control; the T/C (dose: 400.0 mg/kg/injection, schedule: Q04DX003 (ip), vehicle: Klucel (hydroxypropylcellulose) (HPC)) is 95 % of control.
In the case of `S=C(S)NNc1ccccc1`, the T/C reads like this: under setting [1], 86 % of control; (dose: 25.0 mg/kg/injection, schedule: Q04DX003 (ip), vehicle: saline with Tween-80) 110 % of control; under setting [2], 100 % of control; (dose: 50.0 mg/kg/injection, schedule: Q04DX003 (ip), vehicle: saline with Tween-80) 105 % of control; under setting [3], 100 % of control; under setting [4], 100 % of control.
On to `CC1(C)N=C(N)N=C(N)N1c1ccc(CCCCc2ccc(Cl)c(S(=O)(=O)F)c2)c(Cl)c1`, for which the T/C by setting is: (dose: 0.88 mg/kg/injection, schedule: Q01DX009 (ip), vehicle: saline) 118 % of control; (dose: 1.32 mg/kg/injection, schedule: Q01DX009 (ip), vehicle: saline) 109 % of control; (dose: 2.36 mg/kg/injection, schedule: Q04DX003 (ip), vehicle: saline) 106 % of control; (dose: 3.56 mg/kg/injection, schedule: Q04DX003 (ip), vehicle: saline) 123 % of control; (dose: 5.33 mg/kg/injection, schedule: Q04DX003 (ip), vehicle: saline) 108 % of control; (dose: 8.0 mg/kg/injection, schedule: Q04DX003 (ip), vehicle: saline) 115 % of control. Further, the T/C is 120 % of control (dose: 8.33 mg/kg/injection, schedule: Q04DX003 (ip), vehicle: saline); 163 % of control (dose: 12.0 mg/kg/injection, schedule: Q01DX009 (ip), vehicle: saline); 181 % of control (dose: 12.5 mg/kg/injection, schedule: Q04DX003 (ip), vehicle: saline); 159 % of control (dose: 18.0 mg/kg/injection, schedule: Q01DX009 (ip), vehicle: saline); 104 % of control under setting [5]; 104 % of control under setting [6]. For the same molecule, the T/C under setting [7] is 113 % of control.
In the case of `[F][Fe]([F])([F])([F])([F])[F]`, the T/C is 95 % of control under setting [2] and 101 % of control under setting [3].
As for `COc1ccc(C2=CCCCC2)cc1`, the T/C by setting is: under setting [3], 103 % of control; under setting [4], 104 % of control; under setting [8], 103 % of control; under setting [9], 104 % of control; under setting [10], 95 % of control.
Consider `O=[N+]([O-])c1ccc(N=NNc2ccc(N=Nc3ccccc3)cc2)cc1`, for which the T/C is, setting by setting: under setting [11], 109 % of control; under setting [12], 118 % of control; (dose: 50.0 mg/kg/injection, schedule: Q01DX009 (ip), vehicle: Klucel (hydroxypropylcellulose) (HPC)) 95 % of control; (dose: 75.0 mg/kg/injection, schedule: Q01DX009 (ip), vehicle: Klucel (hydroxypropylcellulose) (HPC)) 100 % of control; (dose: 115.0 mg/kg/injection, schedule: Q01DX009 (ip), vehicle: Klucel (hydroxypropylcellulose) (HPC)) 95 % of control; (dose: 170.0 mg/kg/injection, schedule: Q01DX009 (ip), vehicle: Klucel (hydroxypropylcellulose) (HPC)) 90 % of control.
For `COc1ccc2c(c1)N(C(=O)N(CCOC(=O)Nc1ccccc1)CCOC(=O)Nc1ccccc1)c1ccccc1S2`, the T/C is 95 % of control under setting [1] and 91 % of control under setting [2].
In the case of `CC1=NNC(=O)/C1=C\c1ccccc1`, the T/C was 103 % of control under setting [1], 99 % of control under setting [2] and 108 % of control under setting [3].
Consider `COc1cc(C(=O)c2cocc2C(=O)c2ccc3c(c2)OCO3)cc(OC)c1OC`, for which the T/C is, setting by setting: (dose: 25.0 mg/kg/injection, schedule: Q01DX010 (ip), vehicle: saline) 108 % of control; (dose: 50.0 mg/kg/injection, schedule: Q01DX010 (ip), vehicle: other) 123 % of control; (dose: 50.0 mg/kg/injection, schedule: Q01DX010 (ip), vehicle: saline) 91 % of control; (dose: 50.0 mg/kg/injection, schedule: Q01DX010 (ip), vehicle: water) 100 % of control; (dose: 100.0 mg/kg/injection, schedule: Q01DX010 (ip), vehicle: other) 180 % of control; (dose: 100.0 mg/kg/injection, schedule: Q01DX010 (ip), vehicle: saline) 86 % of control and 100 % of control. Moreover, the T/C (dose: 100.0 mg/kg/injection, schedule: Q01DX010 (ip), vehicle: water) is 111 % of control; the T/C (dose: 200.0 mg/kg/injection, schedule: Q01DX010 (ip), vehicle: other) was 165 % of control; the T/C (dose: 200.0 mg/kg/injection, schedule: Q01DX010 (ip), vehicle: saline) was 90 % of control; the T/C (dose: 200.0 mg/kg/injection, schedule: Q01DX010 (ip), vehicle: water) is 155 % of control; the T/C (dose: 400.0 mg/kg/injection, schedule: Q01DX010 (ip), vehicle: other) was 173 % of control.
As for `CCc1ccc(C(=O)NN)cc1`, the T/C (dose: 6.25 mg/kg/injection, schedule: Q01DX009 (ip), vehicle: saline) was 100 % of control; the T/C (dose: 12.5 mg/kg/injection, schedule: Q01DX009 (ip), vehicle: saline) was 97 % of control; the T/C under setting [5] was 103 % of control; the T/C (dose: 25.0 mg/kg/injection, schedule: Q04DX003 (ip), vehicle: saline) was 94 % of control; the T/C under setting [6] is 100 % of control; the T/C under setting [7] is 92 % of control. The T/C was 124 % of control (dose: 100.0 mg/kg/injection, schedule: Q01DX009 (ip), vehicle: saline); 94 % of control (dose: 100.0 mg/kg/injection, schedule: Q04DX003 (ip), vehicle: saline); 90 % of control (dose: 200.0 mg/kg/injection, schedule: Q01DX009 (ip), vehicle: saline); 94 % of control (dose: 200.0 mg/kg/injection, schedule: Q04DX003 (ip), vehicle: saline).
For `COc1cccc(Nc2sc(C(=O)c3cc4cc(Cl)ccc4o3)c(N)c2C#N)c1`, the T/C is, setting by setting: under setting [2], 109 % of control; under setting [3], 100 % of control; under setting [8], 115 % of control.
Consider `O=C(C=P(c1ccccc1)(c1ccccc1)c1ccccc1)CCl`, for which the T/C is 91 % of control (dose: 6.25 mg/kg/injection, schedule: Q01DX009 (ip), vehicle: Klucel (hydroxypropylcellulose) (HPC)); 100 % of control (dose: 6.25 mg/kg/injection, schedule: Q04DX003 (ip), vehicle: Klucel (hydroxypropylcellulose) (HPC)); 91 % of control under setting [11]; 100 % of control (dose: 12.5 mg/kg/injection, schedule: Q04DX003 (ip), vehicle: Klucel (hydroxypropylcellulose) (HPC)); 100 % of control under setting [12]; 100 % of control (dose: 25.0 mg/kg/injection, schedule: Q04DX003 (ip), vehicle: Klucel (hydroxypropylcellulose) (HPC)).
In the case of `COc1ccc(CNCCNCCNCc2ccc(OC)cc2)cc1`, the T/C under setting [1] was 87 % of control; the T/C under setting [2] was 105 % of control; the T/C under setting [3] was 101 % of control and 105 % of control; the T/C under setting [4] was 122 % of control; the T/C under setting [8] is 93 % of control; the T/C under setting [9] was 111 % of control. Further, the T/C (dose: 400.0 mg/kg/injection, schedule: Q01DX009 (ip), vehicle: saline with Tween-80) is 101 % of control and the T/C under setting [10] is 122 % of control.
With `O=C(CI)N1c2ccccc2Sc2ccc3ccccc3c21`, the T/C under setting [2] is 91 % of control, the T/C under setting [3] was 96 % of control and the T/C under setting [8] was 116 % of control.
For the molecule `O=c1oc2ccccc2cc1-c1csc(/C=N/N2CCOCC2)n1`, the T/C is 113 % of control under setting [2] and 104 % of control under setting [3].
